The source of these data is ChEMBL document CHEMBL3877284, “Discovery of novel dengue virus NS5 methyltransferase non-nucleoside inhibitors by fragment-based drug design” (Eur J Med Chem, 2017).

Active and inactive are the calls of the source. The rule behind the calls is not given here.

Data set [1] can be described thus: Inhibition of Dengue virus 3 NS5 2'-O-MTase activity assessed as reduction in [3H]AdoMet transfer to 7MeGpppAC4 capped RNA substrate after 30 mins by microbeta liquid scintillation counting method. Further details: species or system dengue virus type 3.
Data set [2] can be described thus: Inhibition of Dengue virus 3 NS5 N7-MTase activity assessed as reduction in [3H]AdoMet transfer to GpppA2'OMe-RNA74 substrate after 30 mins by microbeta liquid scintillation counting method. The arrangement: species or system dengue virus type 3.
A short description of data set [3]: Inhibition of West Nile virus Uganda strain B956 NS5 2'-O-MTase activity assessed as reduction in [3H]AdoMet transfer to 7MeGpppAC4 capped RNA substrate after 30 mins by microbeta liquid scintillation counting method.
Data set [4] is described as follows: Cytotoxicity against African green monkey Vero E6 cells up to 100 uM. Type of data set: toxicity, cell-based. The settings on record: chlorocebus sabaeus.
The next data set deals with dengue virus type 3. The data set is described as follows: Binding affinity to Dengue virus 3 NS5 methyl transferase domain by thermal shift assay.

As usually defined, the IC50 is the concentration that inhibits the measured activity by half. For `Nc1cc(Cl)ccc1NC(=O)Nc1ccc(S(=O)(=O)Nc2ccc(C(=O)O)cc2)cc1`, the half-inhibitory concentration (IC50) is 435 µM in data set [1], greater than 1000 µM in data set [2] and 299 µM in data set [3].
On to `Nc1cc(C(F)(F)F)ccc1NC(=O)Nc1cccc(S(=O)(=O)Nc2ccc(C(=O)O)cc2)c1`, for which the IC50 in data set [1] stood at 91 µM; in data set [2], 1120 µM; in data set [3], 51 µM. In addition, in data set [4], the Activity entry is listed as “Non-Toxic”.
On the same counts, the results for `Nc1cc(C(F)(F)F)ccc1NC(=O)Nc1ccc(S(=O)(=O)Nc2ccc(C(=O)O)cc2)cc1` are 110 µM, 742 µM, 71 µM and “Non-Toxic”.
As to `Nc1cc(Cl)ccc1NC(=O)Nc1cccc(S(=O)(=O)Oc2ccc(C(=O)O)cc2)c1`, the IC50 in data set [1] is 369 µM; in data set [2], greater than 1000 µM; in data set [3] it was 120 µM.
Taken in the same sequence, the figures for `Nc1cc(Cl)ccc1NC(=O)Nc1cccc(S(=O)(=O)Nc2ccc(C(=O)O)cc2)c1` were 452 µM, greater than 1000 µM and 182 µM.
On the same counts, the results for `Nc1cc(Cl)ccc1NC(=O)Nc1ccc(S(=O)(=O)Oc2ccc(C(=O)O)cc2)cc1` are 368 µM, greater than 1000 µM and 190 µM.
Take `Cc1cc(N)c(N)cc1Cl`: the outcome in the data set on dengue virus type 3 was Active. In data set [1], the IC50 amounted to 9300 µM.
With `Cc1ccc(C(=O)O)c(N)c1`, the result with dengue virus type 3 was Active. For the same compound, in data set [1], the IC50 is 2800 µM.
On the same counts, the results for `Nc1ccc(C(F)(F)F)cc1N` are “Active” and 9000 µM.
